{
  "source": "patent US20250346629A1",
  "about": "“USE OF D-ENANTIOMERIC PEPTIDE LIGANDS OF MONOMERIC ALPHA-SYNUCLEIN FOR THE THERAPY OF VARIOUS SYNUCLEINOPATHIES” (PRIAVOID GMBH, priority 2021, published 2025)",
  "key": {"[1]": {"assay": "Solubility of D-peptides in buffer (UV-vis of supernatant after centrifugation)", "format": "physicochemical", "conditions": "different buffers including PBS, aqueous buffer; different buffer conditions including PBS pH 7.4; 1 h at 37° C., 20 800×g centrifugation; read-out: starting concentration up to which the compound remained completely in the supernatant", "text": "D-enantiomeric peptides with C-terminal amidation were acquired from CASLO (CASLO, DK) as a lyophilized chloride salt powder having a purity of >95%."}, "15N-labeled α-syn": {"target": "15N-labeled α-syn (Homo sapiens, UniProt P37840)", "assay": "NMR analysis (HSQC, PRE) of 15N-labeled α-syn with SVD-1a (FIG. 12)", "format": "binding", "conditions": "25 μM α-syn : SVD-1a 1:1, PBS pH 7.4, 10° C.", "procedure": "Analogs of SVD-1a spin-labeled with nitroxyl radicals were produced by reacting (1-oxyl-2,2,5,5-tetramethyl-Δ3-pyrroline-3-methyl) methanethiosulfonate (MTSL) (Toronto Research Chemicals, USA) with SVD-1a_Cys, leading to covalent bonding of the nitroxyl radical spin label MTSL to the C-terminal D-cysteine residue. A fivefold molar excess of MTSL relative to the peptide, i.e. ˜4 mg MTSL (˜15 μmol) was dissolved in 90 μl N,N-dimethylformamide (DMF) and mixed with 810 μl 200 mM HEPES/NaOH buffer, pH 7.6. The solution was then added to ˜5 mg (˜3 μmol) of lyophilized SVD-1a_Cys. […]\nThe samples were produced at final concentrations of 25 μM full-length ^15N-labeled acetyl-α-syn in the absence (reference) and in the presence of an equimolar amount of SVD-1a (not isotope-labeled, therefore invisible to NMR) in PBS buffer, pH 7.4, with addition of 5% D2O as internal reference. 2D-^1H-^15N-HSQC spectra were recorded back-to-back with a Bruker AVANCE NEO spectrometer (Bruker, USA) at 1200 MHz proton Larmor frequency. […]\nThe NMR datasets were processed using the Bruker TopSpin software (Version 4.1.1) and visualized using CcpNmr Analysis (v2.4.2) (50). […] From the residue-specific changes in chemical shift in the ^1H and ^15N dimensions, an absolute change in chemical shift was calculated according to the following formula: […]"}, "α-syn": {"target": "α-syn (Homo sapiens, UniProt P37840)", "assay": "Kinetic single-cycle SPR assay with α-syn and immobilized peptides, CMD200M (FIG. 11)", "format": "binding", "conditions": "kinetic 1:1 interaction model", "procedure": "The measurements were carried out using an 8K-Biacore device (Cytiva, USA). The interactions were measured using single-cycle kinetics experiments. In all assays, the peptide compounds were immobilized as ligands on the sensor surface and recombinant α-syn was injected into the flow as the analyte. […] Surface quenching was carried out with 1 M ethanolamine at pH 8.3. Unless stated otherwise, the kinetic experiments were carried out at a flow rate of 30 μl/min in PBS, pH 7.4. The surface was regenerated between cycles using 30 s injections of 2 M Gua-HCl at 30 μl/min. Data evaluation was performed using the evaluation software Biacore insight v3.0 (Cytiva, USA).\nThe experiment was carried out as an individual measurement."}, "monomeric α-syn": {"target": "monomeric α-syn (Homo sapiens, UniProt P37840)", "assay": "Size-exclusion chromatography of monomeric α-syn after incubation with SVD-1a (FIG. 13)", "format": "biochemical", "conditions": "10 μM α-syn monomer with 0-80 μM SVD-1a, 2 h, 37° C., 300 rpm", "procedure": "10 μM α-syn monomer were incubated with 0, 5, 10, 20, 40 and 80 μM SVD-1a in PBS, pH 7.4, for 2 h at 37° C. and 300 rpm. The SEC was carried out with a Bio SEC-3 column (150 Å, Agilent, USA) at 1 ml min^−1 and PBS, pH 7.4, as mobile phase. The samples were centrifuged for 5 minutes at 20 800×g before the supernatant was injected. The protein was detected at A214. α-syn monomer eluted after 6.91 min retention time. The peak area of the α-syn monomer was integrated for the 10 μM α-syn sample and set to 100%. The concentration of monomeric α-syn was not reduced in the presence of increasing concentrations of SVD-1a. SVD-1a itself was only eluted during the purification and regeneration procedure of the SEC, which is highly probably attributable to its high net positive charge."}},
  "note": "Square brackets hold non-standard residues; d marks the D form. Peptide text beside a SMILES is read from it.",
  "data": [
    {"smiles": "CC[C@@H](C)[C@@H](NC(=O)[C@@H](Cc1c[nH]cn1)NC(=O)[C@@H](CCC(=O)O)NC(=O)[C@@H](CCC(N)=O)NC(=O)[C@@H](Cc1c[nH]c2ccccc12)NC(=O)[C@@H](Cc1ccc(O)cc1)NC(=O)[C@H](NC(=O)[C@@H](CCC(=O)O)NC(=O)[C@@H](Cc1c[nH]cn1)NC(=O)[C@H](NC(=O)[C@H]1CCCN1C(=O)[C@@H](CC(C)C)NC(=O)[C@H](N)CCCNC(=N)N)[C@H](C)O)[C@H](C)O)C(=O)N[C@H](Cc1c[nH]c2ccccc12)C(=O)N[C@H](Cc1c[nH]cn1)C(=O)N[C@H](C)C(=O)N[C@H](CCCNC(=N)N)C(=O)N[C@H](CCCNC(=N)N)C(=O)N[C@H](CCCNC(=N)N)C(=O)N[C@H](CCCNC(=N)N)C(=O)N[C@H](CCCNC(=N)N)C(N)=O", "note": "[SVD-1a, rlpthetywqehiwharrrrr] (H-[dR][dL][dP][dT][dH][dE][dT][dY][dW][dQ][dE][dH][dI][dW][dH][dA][dR][dR][dR][dR][dR]-NH2)", "values": [
      {"measurement": "solubility at 1 h", "setting": "[1]", "result": "≥ 1000", "unit": "µM"},
      {"measurement": "binding region on α-syn (PRE intensity ratios)", "setting": "15N-labeled α-syn", "result": "somewhat more pronounced (transient) bonding interaction of SVD-1a with residues in the C-terminal region of α-syn"},
      {"measurement": "Kd", "setting": "α-syn; PBS 7.4, individual measurement", "result": 0.1, "unit": "nM"},
      {"measurement": "koff", "setting": "α-syn; PBS 7.4, as printed for SVD-1a", "result": "3.13e-05", "unit": "s⁻¹"},
      {"measurement": "concentration of monomeric α-syn (SEC peak area)", "setting": "monomeric α-syn", "result": "not reduced"}
    ]}
  ]
}
